Laboratory results reported in patent publication US20230276831A1, “Food/Beverage Article” (Kikkoman Corporation, priority 2020, published 2023).

Tests used:
[1] = system: Lactobacillus acidipiscis NBRC 102163; assay: Antimicrobial action of licoricidin in liquid seasoning (1), lactic acid bacteria C; type: cell-based; set-up: key: A: The bacterial count decreases to less than 10% of the bacterial count of the control group.; B: The bacterial count decreases to 10% or more and less than 50% of the bacterial count of the control group.; C: The bacterial count decreases to 50% or more and less than 100% of the bacterial count of control group.; D: The bacterial count is the same as the bacterial count of the control group
Procedure: Commercially available whole soybean soy sauce (produced by Kikkoman Corporation) was electrodialyzed and then concentrated under reduced pressure to obtain soy sauce at a salt concentration of 0% (w/v) and an alcohol concentration of 0% (v/v). Then, salt and/or alcohol was added to the above-mentioned obtained soy sauce, and the mixture was heat-treated to produce soy sauces at salt concentrations and alcohol concentrations shown in the following Table 5. The pHs of the soy sauces were 4.9 to 5.0.
Specifically, components contained in dried bonito was extracted with alcohol and water; sugar, salt, and seasonings were blended with the obtained extract; and the resulting mixture was heated to produce bonito stock. The salt concentration of the obtained bonito stock was 0.2% (w/v), the alcohol concentration was 0.15% (v/v), and the pH was 6.1.
Specifically, Koikuchi soy sauce (produced by Kikkoman Corporation), granulated sugar, potato starch, and water were blended in amounts shown in following Table 7, and the resulting mixture was heated to produce sauce. The salt concentration of the obtained sauce was 5.3% (w/v), the alcohol concentration was 0.8% (v/v), and the pH was 5.0.
Specifically, the components contained in dried bonito was extracted with water; Koikuchi soy sauce (produced by Kikkoman Corporation), sugar, and salt were blended with the obtained extract; and the resulting mixture was heated to produce Japanese seasoned soup stock. The salt concentration of the obtained Japanese seasoned soup stock was 3% (w/v), the alcohol concentration was 0.4% (v/v), and the pH was 5.5.
Licoricidin (produced by ChemFaces) was added to each of the liquid seasonings produced in the above-mentioned (1) to concentrations of 1 ppm, 5 ppm, 10 ppm, 25 ppm, and 50 ppm. Lactic acid bacteria described in the following Table 9 were then added to 10^6 to 10^7 cells/mL and cultured at 30° C. for 7 days. After the culture, the number of lactic acid bacteria was measured using the GAM agar medium “Nissui”. Liquid seasoning to which licoricidin was not added was used as a control group, and the antimicrobial activity was evaluated in comparison with the number of lactic acid bacteria in the control group. The evaluation was performed using the criterion shown below.
• A: The bacterial count decreases to less than 10% of the bacterial count of the control group. • B: The bacterial count decreases to 10% or more and less than 50% of the bacterial count of the control group. • C: The bacterial count decreases to 50% or more and less than 100% of the bacterial count of control group. • D: The bacterial count is the same as the bacterial count of the control group.

[2] = system: Lactobacillus rennini (DSM 20253); assay: Antimicrobial action of oxygen-containing heterocyclic compounds in soy sauce (Test Example 6); type: cell-based; settings: Loigolactobacillus rennini, DSM20253, 168 h, salt 4% (w/v), alcohol 5% (v/v)
Procedure: Commercially available whole soybean soy sauce (produced by Kikkoman Corporation) was electrodialyzed and then concentrated under reduced pressure to produce soy sauce at a salt concentration of 0% (w/v) and an alcohol concentration of 0% (v/v). Then, salt and/or alcohol was added to the above-mentioned obtained soy sauce, and the mixture was then heat-treated to produce soy sauce at a salt concentration of 4% (w/v) and an alcohol concentration of 5% (v/v).
The test substance described in Table 20 was added to the above-mentioned produced soy sauce to concentrations of 1 to 100 ppm. Lactic acid bacteria (Lactobacillus rennini (DSM 20253)) were then added to 10^6 to 10^7 cells/mL and cultured at 30° C. for 7 days. After the culture, the number of lactic acid bacteria was measured using the GAM agar medium “Nissui”. Soy sauce to which licoricidin was not added was used as a control group, and the antimicrobial activity was evaluated in comparison with the number of lactic acid bacteria in the control group. The evaluation was performed using the criterion shown below.
• A: The bacterial count decreases to less than 10% of the bacterial count of the control group. • B: The bacterial count decreases to 10% or more and less than 50% of the bacterial count of control group. • C: The bacterial count decreases to 50% or more and less than 100% of the bacterial count of the control group. • D: The bacterial count is the same as the bacterial count of the control group. • -: Not evaluated

In the case of COc1c(CC=C(C)C)c(O)cc2c1C[C@H](c1ccc(O)c(CC=C(C)C)c1O)CO2 [Licoricidin, 4-[(R)-7-hydroxy-5-methoxy-6-(3-methyl-2-butenyl)chroman-3-yl]-2-(3-methyl-2-butenyl)-1,3-benzenediol], the Antimicrobial activity ([1]; Bonito stock (salt 0.2% (w/v), alcohol 0.15% (v/v), pH 6.1), licoricidin 1 ppm) is reported as “C (The bacterial count decreases to 50% or more and less than 100% of the bacterial count of control group.)”, the Antimicrobial activity ([1]; Bonito stock (salt 0.2% (w/v), alcohol 0.15% (v/v), pH 6.1), licoricidin 5 ppm) is reported as “A (The bacterial count decreases to less than 10% of the bacterial count of the control group.)” and the Antimicrobial activity ([1]; Bonito stock (salt 0.2% (w/v), alcohol 0.15% (v/v), pH 6.1), licoricidin 10 ppm) is reported as “A (The bacterial count decreases to less than 10% of the bacterial count of the control group.)”. The Antimicrobial activity ([1]; Bonito stock (salt 0.2% (w/v), alcohol 0.15% (v/v), pH 6.1), licoricidin 25 ppm) was “A (The bacterial count decreases to less than 10% of the bacterial count of the control group.)”, the Antimicrobial activity ([1]; Bonito stock (salt 0.2% (w/v), alcohol 0.15% (v/v), pH 6.1), licoricidin 50 ppm) was “A (The bacterial count decreases to less than 10% of the bacterial count of the control group.)” and the Antimicrobial activity ([1]; Japanese seasoned soup stock (salt 3% (w/v), alcohol 0.4% (v/v), pH 5.5), licoricidin 1 ppm) was “D”. For the same compound, the Antimicrobial activity ([1]; Japanese seasoned soup stock (salt 3% (w/v), alcohol 0.4% (v/v), pH 5.5), licoricidin 5 ppm) was “A (The bacterial count decreases to less than 10% of the bacterial count of the control group.)”, the Antimicrobial activity ([1]; Japanese seasoned soup stock (salt 3% (w/v), alcohol 0.4% (v/v), pH 5.5), licoricidin 10 ppm) was “A (The bacterial count decreases to less than 10% of the bacterial count of the control group.)” and the Antimicrobial activity ([1]; Japanese seasoned soup stock (salt 3% (w/v), alcohol 0.4% (v/v), pH 5.5), licoricidin 25 ppm) was “A (The bacterial count decreases to less than 10% of the bacterial count of the control group.)”. For the same compound, the Antimicrobial activity ([1]; Japanese seasoned soup stock (salt 3% (w/v), alcohol 0.4% (v/v), pH 5.5), licoricidin 50 ppm) was “A (The bacterial count decreases to less than 10% of the bacterial count of the control group.)”, the Antimicrobial activity ([1]; Sauce (salt 5.3% (w/v), alcohol 0.8% (v/v), pH 5.0), licoricidin 1 ppm) was “B (The bacterial count decreases to 10% or more and less than 50% of the bacterial count of the control group.)” and the Antimicrobial activity ([1]; Sauce (salt 5.3% (w/v), alcohol 0.8% (v/v), pH 5.0), licoricidin 5 ppm) was “B (The bacterial count decreases to 10% or more and less than 50% of the bacterial count of the control group.)”. The Antimicrobial activity ([1]; Sauce (salt 5.3% (w/v), alcohol 0.8% (v/v), pH 5.0), licoricidin 10 ppm) was “A (The bacterial count decreases to less than 10% of the bacterial count of the control group.)”, the Antimicrobial activity ([1]; Sauce (salt 5.3% (w/v), alcohol 0.8% (v/v), pH 5.0), licoricidin 25 ppm) was “A (The bacterial count decreases to less than 10% of the bacterial count of the control group.)” and the Antimicrobial activity ([1]; Sauce (salt 5.3% (w/v), alcohol 0.8% (v/v), pH 5.0), licoricidin 50 ppm) was “A (The bacterial count decreases to less than 10% of the bacterial count of the control group.)”. For the same compound, the Antimicrobial activity ([1]; Soy sauce, salt 0% (w/v), alcohol 0% (v/v), licoricidin 1 ppm) was “C (The bacterial count decreases to 50% or more and less than 100% of the bacterial count of control group.)”, the Antimicrobial activity ([1]; Soy sauce, salt 0% (w/v), alcohol 0% (v/v), licoricidin 5 ppm) was “C (The bacterial count decreases to 50% or more and less than 100% of the bacterial count of control group.)” and the Antimicrobial activity ([1]; Soy sauce, salt 0% (w/v), alcohol 0% (v/v), licoricidin 10 ppm) was “B (The bacterial count decreases to 10% or more and less than 50% of the bacterial count of the control group.)”. The Antimicrobial activity ([1]; Soy sauce, salt 0% (w/v), alcohol 0% (v/v), licoricidin 25 ppm) was “A (The bacterial count decreases to less than 10% of the bacterial count of the control group.)”, the Antimicrobial activity ([1]; Soy sauce, salt 0% (w/v), alcohol 0% (v/v), licoricidin 50 ppm) was “A (The bacterial count decreases to less than 10% of the bacterial count of the control group.)” and the Antimicrobial activity ([1]; Soy sauce, salt 4% (w/v), alcohol 0% (v/v), licoricidin 1 ppm) was “C (The bacterial count decreases to 50% or more and less than 100% of the bacterial count of control group.)”. For the same compound, the Antimicrobial activity ([1]; Soy sauce, salt 4% (w/v), alcohol 0% (v/v), licoricidin 5 ppm) was “A (The bacterial count decreases to less than 10% of the bacterial count of the control group.)”, the Antimicrobial activity ([1]; Soy sauce, salt 4% (w/v), alcohol 0% (v/v), licoricidin 10 ppm) was “A (The bacterial count decreases to less than 10% of the bacterial count of the control group.)” and the Antimicrobial activity ([1]; Soy sauce, salt 4% (w/v), alcohol 0% (v/v), licoricidin 25 ppm) was “A (The bacterial count decreases to less than 10% of the bacterial count of the control group.)”. The Antimicrobial activity ([1]; Soy sauce, salt 4% (w/v), alcohol 0% (v/v), licoricidin 50 ppm) was “A (The bacterial count decreases to less than 10% of the bacterial count of the control group.)”, the Antimicrobial activity ([1]; Soy sauce, salt 8% (w/v), alcohol 0% (v/v), licoricidin 1 ppm) was “D” and the Antimicrobial activity ([1]; Soy sauce, salt 8% (w/v), alcohol 0% (v/v), licoricidin 5 ppm) was “A (The bacterial count decreases to less than 10% of the bacterial count of the control group.)”. The Antimicrobial activity ([1]; Soy sauce, salt 8% (w/v), alcohol 0% (v/v), licoricidin 10 ppm) was “A (The bacterial count decreases to less than 10% of the bacterial count of the control group.)”, the Antimicrobial activity ([1]; Soy sauce, salt 8% (w/v), alcohol 0% (v/v), licoricidin 25 ppm) was “A (The bacterial count decreases to less than 10% of the bacterial count of the control group.)” and the Antimicrobial activity ([1]; Soy sauce, salt 8% (w/v), alcohol 0% (v/v), licoricidin 50 ppm) was “A (The bacterial count decreases to less than 10% of the bacterial count of the control group.)”. For the same compound, the Antimicrobial activity ([1]; Soy sauce, salt 12% (w/v), alcohol 0% (v/v), licoricidin 1 ppm) was “B (The bacterial count decreases to 10% or more and less than 50% of the bacterial count of the control group.)”, the Antimicrobial activity ([1]; Soy sauce, salt 12% (w/v), alcohol 0% (v/v), licoricidin 5 ppm) was “A (The bacterial count decreases to less than 10% of the bacterial count of the control group.)” and the Antimicrobial activity ([1]; Soy sauce, salt 12% (w/v), alcohol 0% (v/v), licoricidin 10 ppm) was “A (The bacterial count decreases to less than 10% of the bacterial count of the control group.)”. For the same compound, the Antimicrobial activity ([1]; Soy sauce, salt 12% (w/v), alcohol 0% (v/v), licoricidin 25 ppm) was “A (The bacterial count decreases to less than 10% of the bacterial count of the control group.)”, the Antimicrobial activity ([1]; Soy sauce, salt 12% (w/v), alcohol 0% (v/v), licoricidin 50 ppm) was “A (The bacterial count decreases to less than 10% of the bacterial count of the control group.)” and the activity at 5 ppm ([2]; test substance 5 ppm) was < 10%. For the same compound, the activity at 10 ppm ([2]; test substance 10 ppm) was < 10%, the activity at 25 ppm ([2]; test substance 25 ppm) was < 10% and the activity at 50 ppm ([2]; test substance 50 ppm) was < 10%.
